Like-named read-outs stand apart in the source and are kept apart here.
Biological target: human NaV 1.8 (Homo sapiens, UniProt Q9Y5Y9)
Test: E-VIPR assay detecting and measuring NaV inhibition properties
Assay type: cell-based
Conditions: HEK cells expressing truncated human NaV 1.8
How it was run: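 HEK cells expressing truncated, fully active human NaV1.8, with KIR2.1 BacMam co-transduction, were loaded with CC2-DMPE/DiSBAC6(3) voltage-sensing dyes for 20 min at room temperature. Compounds were tested in 11-point 3-fold dilutions (300 nM top final), optionally with 25% human serum, under electrical stimulation with FRET read-out.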

[1] = no human serum, read-out: IC50 in the E-VIPR Assay

Sequence of human NaV 1.8 (Q9Y5Y9 126-399 limits assumed): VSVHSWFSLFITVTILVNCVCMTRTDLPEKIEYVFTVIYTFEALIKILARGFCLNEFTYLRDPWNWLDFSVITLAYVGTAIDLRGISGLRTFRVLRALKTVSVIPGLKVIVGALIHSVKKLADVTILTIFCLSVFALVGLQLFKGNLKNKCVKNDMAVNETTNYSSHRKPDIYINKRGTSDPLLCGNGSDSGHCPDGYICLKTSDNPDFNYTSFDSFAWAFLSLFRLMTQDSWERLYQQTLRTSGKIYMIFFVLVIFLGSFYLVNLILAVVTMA
Sequence of human NaV 1.8 (Q9Y5Y9 660-890 limits assumed): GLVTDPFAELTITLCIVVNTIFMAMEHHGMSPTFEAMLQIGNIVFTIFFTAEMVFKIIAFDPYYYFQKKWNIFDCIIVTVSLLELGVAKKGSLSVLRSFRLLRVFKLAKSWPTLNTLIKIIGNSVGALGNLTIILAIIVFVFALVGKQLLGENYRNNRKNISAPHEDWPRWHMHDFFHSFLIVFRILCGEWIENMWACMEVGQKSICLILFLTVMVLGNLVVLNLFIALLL
Sequence of human NaV 1.8 (Q9Y5Y9 1148-1722 limits assumed): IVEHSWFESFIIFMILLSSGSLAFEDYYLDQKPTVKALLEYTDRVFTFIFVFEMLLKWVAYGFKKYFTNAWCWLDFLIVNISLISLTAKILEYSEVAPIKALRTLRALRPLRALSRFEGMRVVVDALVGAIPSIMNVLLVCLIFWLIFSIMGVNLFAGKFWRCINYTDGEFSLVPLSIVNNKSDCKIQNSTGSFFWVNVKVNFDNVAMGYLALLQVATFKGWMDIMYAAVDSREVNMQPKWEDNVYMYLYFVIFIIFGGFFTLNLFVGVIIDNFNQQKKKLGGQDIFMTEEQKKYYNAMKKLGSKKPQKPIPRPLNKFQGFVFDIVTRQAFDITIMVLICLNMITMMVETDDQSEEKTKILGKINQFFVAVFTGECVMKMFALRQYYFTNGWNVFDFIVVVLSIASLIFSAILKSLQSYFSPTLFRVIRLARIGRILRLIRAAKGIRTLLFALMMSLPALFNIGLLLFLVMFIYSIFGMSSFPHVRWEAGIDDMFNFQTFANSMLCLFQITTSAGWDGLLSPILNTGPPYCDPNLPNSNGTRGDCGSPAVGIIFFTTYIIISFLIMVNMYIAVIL

SMILES	IC50 [1] [nM]	IC50 (in the presence of human serum (compound numbers followed by *), read-out: IC50 in the E-VIPR Assay, performed in the presence of human serum) [nM]
COc1c([C@H]2[C@H](C(=O)Nc3ccc(-c4nnc(C)o4)nc3)O[C@@](C)(C(F)(F)F)[C@H]2C)ccc(F)c1F [Compound 398, (2R,3S,4S,5R)-3-(3,4-difluoro-2-methoxyphenyl)-4,5-dimethyl-N-(6-(5-methyl-1,3,4-oxadiazol-2-yl)pyridin-3-yl)-5-(trifluoromethyl)-tetrahydrofuran-2-carboxamide]	10 to 100	–
COc1c([C@@H]2C[C@](C)(C(F)(F)F)O[C@H]2C(=O)Nc2ccnc([C@@H](O)[C@H](C)O)c2)ccc(F)c1F (relative stereo) [Compound 700, rel-(2R,3S,5R)-3-(3,4-difluoro-2-methoxyphenyl)-N-(2-((1R,2S)-1,2-dihydroxypropyl)pyridin-4-yl)-5-methyl-5-(trifluoromethyl)tetrahydrofuran-2-carboxamide]	–	10 to 100
COCCOc1c([C@H]2[C@H](C(=O)Nc3ccc4nncn4c3)O[C@@](C)(C(F)(F)F)[C@H]2C)ccc(F)c1F [Compound 577, (2R,3S,4S,5R)-3-[3,4-difluoro-2-(2-methoxyethoxy)phenyl]-4,5-dimethyl-N-([1,2,4]triazolo[4,3-a]pyridin-6-yl)-5-(trifluoromethyl)tetrahydrofuran-2-carboxamide]	< 10	–
COc1c(C2C(C(=O)Nc3ccnc(S(C)(=O)=O)c3)OC(C)(C(F)(F)F)C2C)ccc(F)c1F (single isomer, unassigned) [Compound 50, 3-(3,4-difluoro-2-methoxy-phenyl)-4,5-dimethyl-N-(2-methylsulfonyl-4-pyridyl)-5-(trifluoromethyl)tetrahydrofuran-2-carboxamide]	< 10	–
COc1c([C@H]2[C@H](C(=O)Nc3ccnc(C(C)(N)CO)c3)O[C@@](C)(C(F)(F)F)[C@H]2C)ccc(F)c1F (single isomer, unassigned) [Compound 358, rel-(2R*,3S*,4S*,5R*)-N-(2-(2-amino-1-hydroxypropan-2-yl)pyridin-4-yl)-3-(3,4-difluoro-2-methoxyphenyl)-4,5-dimethyl-5-(trifluoromethyl)-tetrahydrofuran-2-carboxamide]	< 10	–
C[C@H]1[C@@H](c2ccc(F)c(F)c2OCC2(F)COC2)[C@H](C(=O)Nc2ccnc(CO)c2)O[C@@]1(C)C(F)(F)F [Compound 645, (2R,3S,4S,5R)-3-(3,4-difluoro-2-((3-fluorooxetan-3-yl)methoxy)phenyl)-N-(2-(hydroxymethyl)pyridin-4-yl)-4,5-dimethyl-5-(trifluoromethyl)tetrahydrofuran-2-carboxamide]	10 to 100	–
COc1c([C@H]2[C@H](C(=O)NC(C)c3cnn(C)c3)O[C@@](C)(C(F)(F)F)[C@H]2C)ccc(F)c1F (stereo partly drawn) [Compound 296, (2R,3S,4S,5R)-3-(3,4-difluoro-2-methoxyphenyl)-4,5-dimethyl-N-(1-(1-methyl-1H-pyrazol-4-yl)ethyl)-5-(trifluoromethyl)tetrahydrofuran-2-carboxamide]	≥ 1000	–
COc1c([C@H]2[C@H](C(=O)Nc3ccnc(N4CCN[C@H](C)C4=O)c3)O[C@@](C)(C(F)(F)F)[C@H]2C)ccc(F)c1F [Compound 484, (2R,3S,4S,5R)-3-(3,4-difluoro-2-methoxyphenyl)-4,5-dimethyl-N-(2-((R)-3-methyl-2-oxopiperazin-1-yl)pyridin-4-yl)-5-(trifluoromethyl)tetrahydrofuran-2-carboxamide]	10 to 100	–
COc1c([C@H]2[C@H](C(=O)Nc3cc(C(O)CO)ncc3F)O[C@@](C)(C(F)(F)F)[C@H]2C)ccc(F)c1F (single isomer, unassigned) [Compound 199, rel-(2R*,3S*,4S*,5R*)-3-(3,4-difluoro-2-methoxyphenyl)-N-(2-(-1,2-dihydroxyethyl)-5-fluoropyridin-4-yl)-4,5-dimethyl-5-(trifluoromethyl)tetrahydrofuran-2-carboxamide]	< 10	–
COc1c(C2C(C(=O)Nc3ccnc(C(C)(C)O)c3)OC(C)(C(F)(F)F)C2C)ccc(F)c1F (single isomer, unassigned) [Compound 48, 3-(3,4-difluoro-2-methoxy-phenyl)-N-[2-(1-hydroxy-1-methyl-ethyl)-4-pyridyl]-4,5-dimethyl-5-(trifluoromethyl)tetrahydrofuran-2-carboxamide]	< 10	–
COc1c([C@H]2[C@H](C(=O)Nc3ccc(C#N)cn3)O[C@@](C)(C(F)(F)F)[C@H]2C)ccc(F)c1F [Compound 187, (2R,2S,4S,5R)-N-(5-cyanopyridin-2-yl)-3-(3,4-difluoro-2-methoxyphenyl)-4,5-dimethyl-5-(trifluoromethyl)tetrahydrofuran-2-carboxamide]	10 to 100	–
COc1c([C@H]2[C@H](C(=O)Nc3ccnc(N4CC[C@@H](O)C4=O)c3)O[C@@](C)(C(F)(F)F)[C@H]2C)ccc(F)c1F [Compound 471, (2R,3S,4S,5R)-3-(3,4-difluoro-2-methoxyphenyl)-N-(2-((R)-3-hydroxy-2-oxopyrrolidin-1-yl)pyridin-4-yl)-4,5-dimethyl-5-(trifluoromethyl)tetrahydrofuran-2-carboxamide]	10 to 100	–
COc1c(C2C(C(=O)Nc3ccn4nnnc4c3)OC(C)(C(F)(F)F)C2C)ccc(F)c1C (single isomer, unassigned) [Compound 133, 3-(4-fluoro-2-methoxy-3-methyl-phenyl)-4,5-dimethyl-N-(tetrazolo[1,5-a]pyridin-7-yl)-5-(trifluoromethyl)tetrahydrofuran-2-carboxamide]	100 to 1000	–

— US20240368135A1 (VERTEX PHARMACEUTICALS INCORPORATED, priority 2021, published 2024)
